# Results as given in patent US20160243254A1, “Theranostic Nanoprobes for Overcoming Cancer Multidrug Resistance and Methods” (Massachusetts Institute of Technology, priority 2015, published 2016).
# Tests used:
# [1] = test system: resistant MDA-MB-231 cells; assay: MTT cell viability assay; assay type: cell-based; details: 5-FU resistant MDA-MB-231 cells compared to parental cells
# Procedure: Briefly, a standard MTT [3-(4,5-dimethylthiazol-2-yl)-2,5-diphenyltetrazoliumbromide] reduction assay was performed to determine the resistance status of the cells and the cytotoxicity of the gold nanobeacons.
# Cells were seeded at a density of 1×10^5 cells per well in 24-well culture plates in complete DMEM (500 μL) with serum. After 24 hours of exposure, the medium was removed and the cells were washed twice with sterile PBS and 300 μL of fresh medium with serum was added. Then 16.7 μL of sterile MTT stock solution (5 mg/mL in PBS) was added to each well.
# After incubation for an additional 2 hours, the medium was removed and the formazan crystals were resuspended in 300 μL of dimethyl sulfoxide (Sigma-Aldrich, USA). The solution was mixed and its absorbance was measured at 540 nm as a working wavelength and 630 nm as reference using a microplate reader (Varioskan Flash Multimode Reader, Thermo Scientific, MA, USA). The cell viability was normalized to that of cells cultured in the culture medium with PBS treatment.
# In order to corroborate confocal and flow cytometry data and overcome 5-FU resistance, resistant MDA-MB-231 cells were incubated with increasing amounts of dark-gold nanobeacons with and without 5-FU, and evaluated by the imaging system IVIS®.
# [2] = test system: resistant MDA-MB-231 mammary fat pad tumors; assay: Tumor growth in orthotopic triple-negative breast cancer mice model after hydrogel implantation; assay type: in vivo, SCID mice; details: day 14 post treatment
# Excerpt: In order to evaluate the efficiency of the dark-gold nanobeacon probes in sensing and in overcoming MDR in vivo, an orthotopic breast cancer mice model was developed by injecting resistant MDA-MD-231 cells to the mammary fat pad of female SCID hairless congenic mice. Efficacious and local delivery of the dark-gold nanobeacon probes was achieved by the implantation of a hydrogel disk on top of the triple-negative breast tumors. The hydrogel scaffold comprising polyamidoamine (PAMAM G5) dendrimer cross-linked with dextran aldehyde provided enhanced stability of the embedded nanoparticles.
# Tumors in the mammary fat pad were induced in female SCID hairless congenic mice by injection of 5×10^6 resistant MDA-MB-231 cells stably expressing firefly luciferase, suspended in 50 μL of HBBS (Lonza, GA, USA) solution. For determination of tumor growth, individual tumors were measured using caliper, and tumor volume was calculated by Tumor volume (mm^3)=width×(length^2)/2. Treatments began when tumor volume reached about 100 mm^3. […]
# In vivo imaging was used to track simultaneously tumor inhibition as measured by luciferase expression, nanobeacon probes before and after hybridization to the target and hydrogel stability monitored by fluorescence emission over a period of 14 days following hydrogel implantation.
compound,measurement,setting,value
"O=c1[nH]cc(F)c(=O)[nH]1 [5-FU, 5-fluorouracil]",cell death after continuous exposure to drug,[1],absence of cell death
same,effect on tumor (in words),[2],no effect
